The structures appear in SMILES notation.

The experiment concerns HT-29 cells. Nature of the experiment: crystal violet assay of adherent HT-29 cells after 5-FU treatment. The class given is cell-based, human. As for the experimental part:
5-Fluoruracil (5-FU) was from Sigma Aldrich, Necrostatin-1 was from Enzo Life Sciences. HAT-29 human CRC cell line was obtained from ATCC after cell line authentication utilizing short tandem repeat (STR) profiling. Within four weeks all cell lines were expanded and frozen in aliquots. Cell lines were reauthenticated and regularly tested for contamination as provided by the German Cancer Research Center (DKFZ) Core Facility (Heidelberg). Cells were cultured in RPMI-1640 medium (Biochrom) containing 10% FCS (PAA Laboratories) and 1% penicillin/streptomycin at 5% CO2 and 37° C.
HT-29 cells were incubated with 20 μM IDN-7314 and/or 20 μM Necrostatin (N) for 2 hours prior to treatment with 5-Fluoruracil (5-FU, 50 or 100 mg/ml). After 48 hours, the number of adherent cells was determined via crystal violet assay (RLU=relative light units). […] This effect could be abolished by the RIP1-specific kinase inhibitor, necrostatin, the reduced number of cells is due to induction of necrotic cell death.

`C[C@H](NC(=O)C(=O)Nc1c(F)cccc1F)C(=O)N[C@@H](CC(=O)O)C(=O)COc1c(F)c(F)cc(F)c1F` [IDN-7314]: the “number of adherent cells (crystal violet assay, RLU)” value (20 μM IDN-7314 for 2 hours prior to 5-FU (50 or 100 mg/ml), read after 48 hours) was “significantly reduced the number of adherent cells”. Where the note is “IDN-7314 with 5-FU”, the “sensitization of colon cancer cells to chemotherapy-induced necrotic cell death (FIG. 1)” value is given as “sensitizes colon cancer cells to chemotherapy-induced necrotic cell death”. On to `CN1C(=O)C(Cc2c[nH]c3ccccc23)NC1=S` (stereo not drawn) [necrostatin, Necrostatin-1, reference compound], for which the “effect of necrostatin on the reduction of adherent cells by IDN-7314 co-treatment” value (20 μM Necrostatin with 20 μM IDN-7314 for 2 hours prior to 5-FU (50 or 100 mg/ml), 48 hours) is “abolished”.

For the origin of these results see US20170128519A1, “CASPASE INHIBITORS FOR THE TREATMENT OF COLORECTAL CANCER” (Conatus Pharmaceuticals, Inc., priority 2015, published 2017).
